Source: patent US20100210602A1, “PhoU (PerF), A P[…] INVOLVED IN [sequence] FORMATION AND TOLERANCE TO MULTIPLE ANTIBIOTICS AND [sequence] AS A DRUG TARGET FOR [sequence] BACTERIA” (priority 2006, published 2010)
Values after ≈ are worked out from the molar mass of the structure shown.

Legend:
[1] = system: JHU-313 containing pVector; experiment: MIC/MBC by serial two-fold dilutions in LB broth; assay type: cell-based, E. coli; conditions: Escherichia coli, 16 h at 37° C.
[2] = system: JHU-313; experiment: Kirby-Bauer paper disc assay, zone inhibition; conditions: Escherichia coli, read-out: zone inhibition
[3] = system: W3110; experiment: microbe, parasite or virus in culture; conditions: Escherichia coli, read-out: zone inhibition
[4] = system: JHU-313 containing pPhoU; experiment: Kirby-Bauer paper disc assay, zone inhibition; conditions: Escherichia coli, read-out: zone inhibition
[5] = system: PhoU mutant (JHU-313); experiment: MIC/MBC by serial two-fold dilutions in LB broth; assay type: cell-based, E. coli; conditions: Escherichia coli, 16 h at 37° C.
[6] = system: JHU-313 containing pPhoU; experiment: MIC/MBC by serial two-fold dilutions in LB broth; assay type: cell-based, E. coli; conditions: Escherichia coli, 16 h at 37° C.
[7] = system: JHU-313 containing pVector; experiment: Kirby-Bauer paper disc assay, zone inhibition; conditions: Escherichia coli, read-out: zone inhibition
[8] = system: wild type strain W3110; experiment: microbe, parasite or virus in culture; assay type: cell-based, E. coli; conditions: Escherichia coli, W3110, 16 h
[9] = biological target: T1, PhoU (Escherichia coli, UniProt P0A9K7); experiment: PhoU phosphatase substrate specificity; assay type: biochemical, E. coli; conditions: pH5, pH7 and pH8
T1 construct: His; made in house
Method: Different substrates for the PhoU phosphatase activity were tested. […] For PhoU, the substrates acetyl-P, carbamoyl-P, imido-di phosphate (imido-di-P), r-nitrophenyl phosphate (rNPP), β-Nicotinamide adenine dinucleotide phosphate (NADP), Glucose-1,6-bisphosphate (Glucose-1,6-bisP) were tested at pH5, pH7, and pH8 condition, as potential PhoU phosphatase activity.

T1 sequence (P0A9K7 whole entry): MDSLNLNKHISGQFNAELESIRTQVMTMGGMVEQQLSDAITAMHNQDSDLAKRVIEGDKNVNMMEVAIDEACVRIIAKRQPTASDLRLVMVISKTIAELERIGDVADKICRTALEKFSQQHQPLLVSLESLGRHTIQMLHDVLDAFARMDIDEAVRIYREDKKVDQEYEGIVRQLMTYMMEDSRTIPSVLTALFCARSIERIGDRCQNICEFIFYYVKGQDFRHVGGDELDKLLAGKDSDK

COc1cc(Cc2cnc(N)nc2N)cc(OC)c1OC [Trimethoprim, trimethoprim]
MBC ([1]; read-out: MBC): 1 µg/mL (≈ 3.44 µM) | MIC ([1]; read-out: MIC): 0.5 µg/mL (≈ 1.72 µM) | zone of inhibition at 0.5 µg/mL [2]: 31 mm | zone of inhibition at 1 µg/mL [2]: 38 mm | zone of inhibition at 2 µg/mL [2]: 42 mm | zone of inhibition at 0.5 µg/mL [3]: 24 mm | zone of inhibition at 1 µg/mL [3]: 26 mm | zone of inhibition at 2 µg/mL [3]: 30 mm | zone of inhibition at 0.5 µg/mL [4]: 32 mm | zone of inhibition at 1 µg/mL [4]: 33 mm | zone of inhibition at 2 µg/mL [4]: 36 mm | MBC ([5]; read-out: MBC): 1 µg/mL (≈ 3.44 µM) | MIC ([5]; read-out: MIC): 0.25 µg/mL (≈ 0.861 µM) | MBC ([6]; read-out: MBC): 4 µg/mL (≈ 13.8 µM) | MIC ([6]; read-out: MIC): 2 µg/mL (≈ 6.89 µM) | zone of inhibition at 0.5 µg/mL [7]: 36 mm | zone of inhibition at 1 µg/mL [7]: 40 mm | zone of inhibition at 2 µg/mL [7]: 44 mm | MBC [8]: 8 µg/mL (≈ 27.6 µM) | MIC [8]: 2 µg/mL (≈ 6.89 µM)

CC(=O)OP(=O)(O)O [acetyl-P, acetyl phosphate]
rank as PhoU phosphatase substrate [9]: acetyl-P>rNPP>carbamoyl-P>Glucose-1,6-bisP>NADP

NC(=O)OP(=O)(O)O [carbamoyl-P, carbamoyl phosphate]
rank as PhoU phosphatase substrate [9]: acetyl-P>rNPP>carbamoyl-P>Glucose-1,6-bisP>NADP

O=[N+]([O-])c1ccc(OP(=O)(O)O)cc1 [rNPP, r-nitrophenyl phosphate]
rank as PhoU phosphatase substrate [9]: acetyl-P>rNPP>carbamoyl-P>Glucose-1,6-bisP>NADP

β-Nicotinamide adenine dinucleotide phosphate [NADP]
rank as PhoU phosphatase substrate [9]: acetyl-P>rNPP>carbamoyl-P>Glucose-1,6-bisP>NADP
